This experiment has as its target T1, MAGL (Homo sapiens, UniProt Q99685).
T1 sequence (Q99685 1-303): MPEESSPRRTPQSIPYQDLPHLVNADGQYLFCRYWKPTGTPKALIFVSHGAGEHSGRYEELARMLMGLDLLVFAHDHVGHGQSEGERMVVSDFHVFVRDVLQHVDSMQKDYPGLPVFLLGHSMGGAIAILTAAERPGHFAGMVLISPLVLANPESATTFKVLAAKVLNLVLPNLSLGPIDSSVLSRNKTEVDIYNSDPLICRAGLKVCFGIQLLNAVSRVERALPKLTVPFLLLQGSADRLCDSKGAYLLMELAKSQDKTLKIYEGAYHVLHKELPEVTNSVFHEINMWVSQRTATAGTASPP
Nature of the experiment: 2-AG assay: MAGL inhibitory activity by hydrolysis of 2-arachidonoylglycerol to arachidonic acid, followed by mass spectrometry. The experiment is classed as biochemical. To be noted: 15 min preincubation, 30 min reaction at RT, 8 μM 2-arachidonoylglycerol.
In the case of `Cn1nc(CC2CC3(C2)CN(C(=O)N2CC4(COCC(=O)N4)C2)C3)cc1C(F)(F)F` [Example 367, 2-[6-[[1-methyl-5-(trifluoromethyl)pyrazol-3-yl]methyl]-2-azaspiro[3.3]heptane-2-carbonyl]-8-oxa-2,5-diazaspiro[3.5]nonan-6-one], the IC50 is 2.88 nM.

`Cn1ncc(CC2CC3(C2)CN(C(=O)N2CC4(COCC(=O)N4)C2)C3)c1C(F)(F)F` [Example 368, 2-[6-[[1-methyl-5-(trifluoromethyl)pyrazol-4-yl]methyl]-2-azaspiro[3.3]heptane-2-carbonyl]-8-oxa-2,5-diazaspiro[3.5]nonan-6-one] returned an IC50 of 4.11 nM.

In turn, `O=C1COCC2(CN(C(=O)N3CC4(CC(Cc5nc(C(F)(F)F)cs5)C4)C3)C2)N1` [Example 369] came in with a 50% inhibitory concentration (IC50) of 23.1 nM.

With `Cn1cc(CC2CC3(C2)CN(C(=O)N2CC4(COCC(=O)N4)C2)C3)c(C(F)(F)F)n1` [Example 370, 2-[6-[[1-methyl-3-(trifluoromethyl)pyrazol-4-yl]methyl]-2-azaspiro[3.3]heptane-2-carbonyl]-8-oxa-2,5-diazaspiro[3.5]nonan-6-one], the IC50 was found to be 11.8 nM.

Regarding `O=C1COCC2(CN(C(=O)N3CC4(CC(Cc5ncc(F)cc5F)C4)C3)C2)N1` [Example 371, 2-[6-[(3,5-difluoro-2-pyridyl)methyl]-2-azaspiro[3.3]heptane-2-carbonyl]-8-oxa-2,5-diazaspiro[3.5]nonan-6-one], inhibition was half-maximal at 9.04 nM (IC50).

Consider `O=C1COCC2(CN(C(=O)N3CC4(CN(Cc5ccc(C(F)(F)F)cc5F)C4)C3)C2)N1` [Example 372, 2-[6-[2-fluoro-4-(trifluoromethyl)benzyl]-2,6-diazaspiro[3.3]heptane-2-carbonyl]-8-oxa-2,5-diazaspiro[3.5]nonan-6-one], for which half-maximal inhibition (IC50) was put at 15.6 nM.

The compound `O=C1COCC2(CN(C(=O)N3CC4(CN(Cc5ccc(S(=O)(=O)C(F)(F)F)cc5F)C4)C3)C2)N1` [Example 373, 2-[6-(2-fluoro-4-triflyl-benzyl)-2,6-diazaspiro[3.3]heptane-2-carbonyl]-8-oxa-2,5-diazaspiro[3.5]nonan-6-one] showed an IC50 of 59.2 nM.

For `CC(C)(C)c1coc(CN2CC3(C2)CN(C(=O)N2CC4(CCC(=O)N4)C2)C3)n1` [Example 374, 2-[6-[(4-tert-butyloxazol-2-yl)methyl]-2,6-diazaspiro[3.3]heptane-2-carbonyl]-2,5-diazaspiro[3.4]octan-6-one], it took 88.7 nM to reach half-maximal inhibition (IC50).

`O=C1CCC2(CN(C(=O)N3CC4(CN(Cc5ccc[nH]c5=O)C4)C3)C2)N1` [Example 375, 2-[6-[(2-keto-1H-pyridin-3-yl)methyl]-2,6-diazaspiro[3.3]heptane-2-carbonyl]-2,5-diazaspiro[3.4]octna-6-one]: half-maximal inhibition (IC50) was put at 1850 nM.

What is called IC50 is the concentration that inhibits the measured activity by half. A high value points to lower potency.

Values taken from patent US20240383904A1, “HETEROCYCLIC COMPOUNDS” (Hoffmann-La Roche Inc., priority 2021, published 2024).
